# Experimental data: patent publication US8759400B2, “Histone deacetylase inhibitors for enhancing activity of antifungal agents” (MethylGene Inc., priority 2005, dated 2014)
# Like-named read-outs stand apart in the source and are kept apart here. Marks after values point to notes of the source that are not given here.
# Key:
# C. glabrata [1] = assay: Post-antifungal effect (PAFE); assay type: cell-based
# Protocol: The post-antifungal effect (PAFE) is the time needed to achieve one log10 of cell growth after drug removal. One-two colonies are resuspended in 5 ml YPD. […] Cells are incubated at 30° C. overnight. In the morning, the optical density at 600 nm is read. Cells at A600 the closest but not surpassing 0.3 (early log-phase cells) are picked for further treatments as follows: […] Counts of CFU/ml are performed at time zero, before and after diluting the cells and at predetermined time points in order to determine the PAFE and the cidal potential of each drug combination (FIGS. 5-10).
# Coccidioides immitis = assay: microbe, parasite or virus in culture; assay type: cell-based
# C. lusitaniae = assay: Clinical isolates, CLSI M27-A2 broth microdilution and checkerboard; assay type: cell-based
# Aspergillus fumigatus = assay: Clinical isolates of other fungal species, checkerboard; assay type: cell-based
# Candida spp. = assay: Clinical isolates, checkerboard, summary over 45 isolates; assay type: cell-based; conditions: for isolates with synergy / isolates tested: 45 clinical isolates of Candida spp.
# C. parapsilosis = assay: Fungicidal activity (CFU counts); assay type: cell-based; conditions: voriconazole with Compound 4, data not shown
# C. glabrata [2] = assay: Clinical isolates, CLSI M27-A2 broth microdilution and checkerboard; assay type: cell-based
# C. glabrata (ATCC 90030) [3] = assay: MIC80 and checkerboard synergy with antifungal agents; assay type: cell-based, Candida glabrata; conditions: for Cpd 4 Conc for 4-fold synergy: C. glabrata (90030)
# C. tropicalis (750) = assay: MIC and checkerboard synergy with azoles; assay type: cell-based, Candida tropicalis
# Protocol: For susceptibility studies, overnight cultures of both Candida species are diluted 1:100 in YEPD medium, grown for 4 h at 30° C., counted in a hemocytometer, then diluted to a concentration of 5×10^3 cells/ml. […] Synergy, determined by the checkerboard method, is defined as a decrease in MIC of antifungal agent that is more than additive of the MIC of the histone deacetylase inhibitor and the antifungal agent alone.
# HDAC [4] = assay: HDAC inhibitory activity in fungal protoplasts (Fluor-de-Lys); assay type: cell-based, Candida glabrata; conditions: C. glabrata protoplasts
# Protocol: (§1) Protoplasts of C. albicans and C. glabrata are prepared by the […] method of Franzusoff et al.
# C. albicans [5] = assay: Clinical isolates, CLSI M27-A2 broth microdilution and checkerboard; assay type: cell-based; conditions: Cpd 4 with voriconazole
# A. niger = assay: Clinical isolates, CLSI M38-A broth microdilution and checkerboard; assay type: cell-based
# Fusarium sp. = assay: Clinical isolates of other fungal species, checkerboard; assay type: cell-based
# Protocol: To determine the synergy between Compound 4 and azoles against other fungal species, a series of clinical isolates (Micheal Rinaldi, University of Texas Health Science Center) was tested by the checkerboard method as described in Example 1.
# Mucor Sp. = assay: as above; assay type: cell-based
# Paecilomyces lilacinus = assay: as above; assay type: cell-based
# C. albicans (ATCC 90028) = assay: MIC80 and checkerboard synergy with antifungal agents; assay type: cell-based, Candida albicans; conditions: for Conc. Cpd 4 for 4-fold decrease: C. albicans; for Cpd 4 Conc for 4-fold synergy: C. albicans (90028)
# C. albicans [6] = assay: Immunocompromised mouse model of systemic candidiasis; assay type: in vivo; conditions: compound 4 at 2-10 mg/kg i.p. daily with ketoconazole 20 mg/kg i.p. daily, 7 days; immunocompromised mice; FIG. 4
# Protocol: The standard method for the mouse candidiasis studies is as follows. Female CD-1 mice are immunocompromised by injecting 240 mg/kg cyclophosphamide on day -3 then 80 mg/kg cyclophosphamide on days 1 and 5. C. albicans is grown in Sabouraud agar, cells are resuspended in 0.9% saline and counted in a hemacytometer. […] Mice are treated with ketoconazole +/− test compound daily for seven days, starting one day after the infection. They are monitored daily for weight loss and death. Mice are sacrificed on day 8 and the kidneys are removed and homogenized and fungal load (CFU) per pair of kidneys determined.
# C. tropicalis = assay: Fungicidal activity (CFU counts); assay type: cell-based; conditions: voriconazole with Compound 4, data not shown
# Trichosporon = assay: Clinical isolates of other fungal species, checkerboard; assay type: cell-based
# C. glabrata (ATCC 90030) [7] = assay type: cell-based
# HDAC [8] = assay: HDAC inhibitory activity in fungal protoplasts (Fluor-de-Lys); assay type: cell-based, Candida albicans; conditions: C. albicans protoplasts
# Protocol: as §1
# Rhizopus arrhizus = assay: Clinical isolates of other fungal species, checkerboard; assay type: cell-based
# [9] = Paecilomyces lilacinus, *Synergy occurs at ½ MIC of Cpd 4
# [10] = Trichosporon, **MIC of azole <0.06 μg/ml, too low to determine synergistic concentration
# [11] = Rhizopus arrhizus, *Synergy occurs at ½ MIC of Cpd 4
smiles,measurement,setting,value
O=C(Cc1ccc(CCCCc2ccccc2)cc1)NO [Cpd 4],PAFE,"C. glabrata [1]; Compound 4 combined with voriconazole, FIGS. 5 and 6C",~1 h
same,PAFE,"C. glabrata [1]; itraconazole combined with Compound 4, FIG. 7",0.5 h
same,Synergy with Cpd 4 (strains showing synergy/total strains tested) Voriconazole,Coccidioides immitis,0/3**
same,Synergy with Cpd 4 (strains showing synergy/total strains tested) Itraconazole,Coccidioides immitis; Coccidioides immitis,2/3
same,MIC,"Coccidioides immitis; Coccidioides immitis, read-out: Cpd 4 MIC",0.25 µg/mL
same,FLU/Cpd 4 FIC,C. lusitaniae; Cpd 4 with fluconazole,<0.1
same,FLU/Cpd 4 FIC interpretation,C. lusitaniae; Cpd 4 with fluconazole,(S) (S = synergy)
same,VOR/Cpd 4 FIC interpretation,C. lusitaniae; Cpd 4 with voriconazole,(S) (S = synergy)
same,minimum Compound 4 concentration at which Compound 4 alone inhibited growth (number in brackets),C. lusitaniae; VOR checkerboard,4 µg/mL
same,MIC,"Aspergillus fumigatus; Aspergillus fumigatus clinical isolates, read-out: Cpd 4 MIC",4 to 8 µg/mL
same,Synergy with Cpd 4 (strains showing synergy/total strains tested) Itraconazole,"Aspergillus fumigatus; Aspergillus fumigatus, *Synergy occurs at ½ MIC of Cpd 4",2/3*
same,Synergy with Cpd 4 (strains showing synergy/total strains tested) Voriconazole,"Aspergillus fumigatus; Aspergillus fumigatus, †2-fold synergy obtained",2/3^†
same,in vitro antagonism of Compound 4-azole combination,Candida spp.; Candida spp. clinical isolates,none of the isolates tested
same,isolates with synergy / isolates tested,Candida spp.; Compound 4 with FLU,34/45
same,isolates with synergy / isolates tested,Candida spp.; Compound 4 with VOR,37/45
same,increase in voriconazole fungicidal activity,C. parapsilosis,1.1-1.2 fold
same,Conc. Cpd 4 for 4-fold decrease,"C. glabrata [2]; 4-fold reduction of FLU MIC, C. glabrata clinical isolates",0.5 µg/mL
same,Conc. Cpd 4 for 4-fold decrease,"C. glabrata [2]; 4-fold reduction of VOR MIC, C. glabrata clinical isolates",0.5 µg/mL
same,FLU/Cpd 4 FIC,"C. glabrata [2]; Cpd 4 with fluconazole, C. glabrata clinical isolates",0.5
same,VOR/Cpd 4 FIC interpretation,"C. glabrata [2]; Cpd 4 with voriconazole, C. glabrata clinical isolates",(S) (S = synergy)
same,minimum Compound 4 concentration at which Compound 4 alone inhibited growth (number in brackets),"C. glabrata [2]; FLU checkerboard, C. glabrata clinical isolates",0.5 µg/mL
same,minimum Compound 4 concentration at which Compound 4 alone inhibited growth (number in brackets),"C. glabrata [2]; VOR checkerboard, C. glabrata clinical isolates",0.5 µg/mL
same,Compound 4 concentration for 4-fold reduction in azole MIC,C. glabrata [2]; all 14 C. glabrata clinical isolates (9 FLU-R),< 0.5 µg/mL
same,Conc. Cpd 4 for 4-fold decrease,"C. glabrata (ATCC 90030) [3]; 4-fold decrease of fenpropimorph MIC, C. glabrata",0.78 µg/mL
same,MIC,"C. glabrata (ATCC 90030) [3]; Nakaseomyces glabratus, ATCC90030, compound alone, C. glabrata (ATCC 90030), read-out: MIC80",6.25 µg/mL
same,concentration at which Compound 4 synergizes with fenpropimorph,C. glabrata (ATCC 90030) [3]; against C. glabrata,2 µg/mL
same,Cpd 4 Conc for 4-fold synergy,C. glabrata (ATCC 90030) [3]; with itraconazole,0.2 µg/mL
same,Cpd 4 Conc for 4-fold synergy,C. glabrata (ATCC 90030) [3]; with ketoconazole,0.25 µg/mL
same,Cpd 4 Conc for 4-fold synergy,C. glabrata (ATCC 90030) [3]; with voriconazole,0.39 µg/mL
same,MIC,"C. tropicalis (750); Candida tropicalis, read-out: Cpd 4 MIC",> 50 µg/mL
same,Cpd 4 Conc for 4-fold synergy,C. tropicalis (750); with itraconazole,0.2 µg/mL
same,Cpd 4 Conc for 4-fold synergy,C. tropicalis (750); with ketoconazole,0.2 µg/mL
same,Cpd 4 Conc for 4-fold synergy,C. tropicalis (750); with voriconazole,0.39 µg/mL
same,HDAC inhibition IC50,HDAC [4],>20 (20%) μg/ml
same,"HDAC inhibition, per cent in parentheses beside IC50 >20",HDAC [4]; concentration not given,>20 (20%)
same,VOR/Cpd 4 FIC interpretation,C. albicans [5],(S) (S = synergy)
same,ITR/Cpd 4 FIC,A. niger; Cpd 4 with itraconazole,0.5
same,VOR/Cpd 4 FIC,A. niger; Cpd 4 with voriconazole,0.5
same,minimum Compound 4 concentration at which Compound 4 alone inhibited growth (number in brackets),A. niger; ITR checkerboard,4.0 µg/mL
same,minimum Compound 4 concentration at which Compound 4 alone inhibited growth (number in brackets),A. niger; VOR checkerboard,2.0 µg/mL
same,Synergy with Cpd 4 (strains showing synergy/total strains tested) Itraconazole,Fusarium sp.; Fusarium sp.,1/3
same,MIC,"Fusarium sp.; Fusarium sp. clinical isolates, read-out: Cpd 4 MIC",8 µg/mL
same,Synergy with Cpd 4 (strains showing synergy/total strains tested) Voriconazole,"Fusarium sp.; Fusarium sp., *Synergy occurs at ½ MIC of Cpd 4",3/3*
same,Synergy with Cpd 4 (strains showing synergy/total strains tested) Itraconazole,Mucor Sp.; Mucor Sp.,1/3
same,Synergy with Cpd 4 (strains showing synergy/total strains tested) Voriconazole,Mucor Sp.; Mucor Sp.,0/3
same,MIC,"Mucor Sp.; Mucor Sp. clinical isolates, read-out: Cpd 4 MIC",8 µg/mL
same,Synergy with Cpd 4 (strains showing synergy/total strains tested) Itraconazole,Paecilomyces lilacinus; [9],2/3*
same,Synergy with Cpd 4 (strains showing synergy/total strains tested) Voriconazole,Paecilomyces lilacinus; [9],2/3*
same,MIC,"Paecilomyces lilacinus; Purpureocillium lilacinum, Paecilomyces lilacinus clinical isolates, read-out: Cpd 4 MIC",4 µg/mL
same,Conc. Cpd 4 for 4-fold decrease,C. albicans (ATCC 90028); 4-fold decrease of nikkomycin MIC,1.563 µg/mL
same,Conc. Cpd 4 for 4-fold decrease,C. albicans (ATCC 90028); 4-fold decrease of terbinafine MIC,0.78 µg/mL
same,MIC,"C. albicans (ATCC 90028); Candida albicans, ATCC90028, compound alone, C. albicans (ATCC 90028), read-out: MIC80",0.8 µg/mL
same,Cpd 4 Conc for 4-fold synergy,C. albicans (ATCC 90028); with itraconazole,0.024 µg/mL
same,Cpd 4 Conc for 4-fold synergy,C. albicans (ATCC 90028); with voriconazole,0.39 µg/mL
same,"effect on the activity of ketoconazole (fungal load, CFU per pair of kidneys)",C. albicans [6],"enhancing (i.e., synergistic) effect"
same,increase in voriconazole fungicidal activity,C. tropicalis,1.1-1.2 fold
same,MIC,"Trichosporon; Trichosporon clinical isolates, read-out: Cpd 4 MIC",0.125 to 0.5 µg/mL
same,Synergy with Cpd 4 (strains showing synergy/total strains tested) Itraconazole,Trichosporon; [10],1/3**
same,Synergy with Cpd 4 (strains showing synergy/total strains tested) Voriconazole,Trichosporon; [10],0/3**
same,frequency of resistant mutants,C. glabrata (ATCC 90030) [7]; 4× synergistic MIC80 concentrations of Compound 4 and fluconazole,2×10^−7
same,frequency of resistant mutants,C. glabrata (ATCC 90030) [7]; 4× the synergistic MIC80 of Compound 4 and itraconazole,1×10^−7
same,resistant mutants detected,C. glabrata (ATCC 90030) [7]; Compound 4 and itraconazole at 2×MIC,no mutants were detected
same,HDAC inhibition IC50,HDAC [8],>20 µg/mL
same,MIC,"Rhizopus arrhizus; Rhizopus arrhizus clinical isolates, read-out: Cpd 4 MIC",> 8 µg/mL
same,Synergy with Cpd 4 (strains showing synergy/total strains tested) Itraconazole,Rhizopus arrhizus; [11],2/3*
same,Synergy with Cpd 4 (strains showing synergy/total strains tested) Voriconazole,Rhizopus arrhizus; [11],2/3*
